According to publication PMC12154458, “High-Throughput Screens of Repurposing Hub and DOS Chemical Libraries Reveal Compounds with Novel and Potent Inhibitory Activity Against the Essential Non-Neuronal Acetylcholinesterase of Schistosoma mansoni (SmTAChE)” (International Journal of Molecular Sciences, 2025):
Read-outs that look alike come from different tables or passages of the source.

What was measured:
[1] = target: recombinant human acetylcholinesterase, rHsAChE (Homo sapiens, UniProt P22303); test: biochemical; conditions: for IC50: read-out: qAC50 (IC50), rHsAChE
recombinant human acetylcholinesterase, rHsAChE, sequence (P22303 32-614): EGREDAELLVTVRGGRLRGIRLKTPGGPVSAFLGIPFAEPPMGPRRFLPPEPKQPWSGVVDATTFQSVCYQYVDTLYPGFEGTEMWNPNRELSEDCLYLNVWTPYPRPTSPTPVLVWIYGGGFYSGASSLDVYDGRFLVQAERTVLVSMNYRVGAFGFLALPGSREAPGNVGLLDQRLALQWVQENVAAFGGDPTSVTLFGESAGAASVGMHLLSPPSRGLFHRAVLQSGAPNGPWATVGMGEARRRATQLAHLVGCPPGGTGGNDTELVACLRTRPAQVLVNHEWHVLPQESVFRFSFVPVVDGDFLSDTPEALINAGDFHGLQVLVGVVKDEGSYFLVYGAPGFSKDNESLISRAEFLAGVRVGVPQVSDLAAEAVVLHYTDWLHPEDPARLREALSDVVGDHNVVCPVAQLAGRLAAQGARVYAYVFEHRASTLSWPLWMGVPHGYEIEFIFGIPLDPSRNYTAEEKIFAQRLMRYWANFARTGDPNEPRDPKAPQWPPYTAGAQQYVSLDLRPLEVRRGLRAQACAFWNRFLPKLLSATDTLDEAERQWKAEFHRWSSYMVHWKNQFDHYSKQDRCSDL

rSmTAChE [2] = target: T1, rSmTAChE (Schistosoma mansoni, UniProt A0A3Q0KMM5); test: biochemical
T1 sequence (A0A3Q0KMM5 27-661 limits assumed): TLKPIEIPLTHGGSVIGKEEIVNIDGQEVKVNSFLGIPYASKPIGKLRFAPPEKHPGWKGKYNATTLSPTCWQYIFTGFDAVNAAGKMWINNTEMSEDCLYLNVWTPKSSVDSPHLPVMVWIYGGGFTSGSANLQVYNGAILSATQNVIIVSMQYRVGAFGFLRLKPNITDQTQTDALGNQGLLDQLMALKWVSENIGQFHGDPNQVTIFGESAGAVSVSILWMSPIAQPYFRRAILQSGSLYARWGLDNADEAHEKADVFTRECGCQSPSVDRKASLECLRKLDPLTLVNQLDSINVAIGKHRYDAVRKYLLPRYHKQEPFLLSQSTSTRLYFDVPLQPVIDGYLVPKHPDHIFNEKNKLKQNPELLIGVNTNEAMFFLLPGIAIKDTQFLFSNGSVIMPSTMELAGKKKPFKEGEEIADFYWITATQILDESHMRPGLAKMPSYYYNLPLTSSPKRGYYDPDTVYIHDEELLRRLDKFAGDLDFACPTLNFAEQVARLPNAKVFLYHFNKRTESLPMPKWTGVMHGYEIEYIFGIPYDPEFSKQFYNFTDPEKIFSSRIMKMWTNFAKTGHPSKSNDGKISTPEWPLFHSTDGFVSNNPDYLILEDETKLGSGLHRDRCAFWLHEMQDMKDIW

rSmTAChE [3] = target: T1, rSmTAChE; format: biochemical
[4] = read-out: qAC50 (IC50), rSmTAChE
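For Inhibition (%) (Average) in this document: mostly 20 µM final but a few compounds at 5 or 10 µM.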
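For Inhibition (%) Replicate A in this document: mostly 20 µM final but a few compounds at 5 or 10 µM.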
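For Inhibition (%) Replicate B in this document: mostly 20 µM final but a few compounds at 5 or 10 µM.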

Row | Compound | Data Mode (curve class), rHsAChE [1] | Inhibition (%) (Average) (rSmTAChE [2]) | Inhibition (%) Replicate A (rSmTAChE [2]) | Inhibition (%) Replicate B (rSmTAChE [2]) | Data Mode (curve class), rSmTAChE (rSmTAChE [3]) | rHsAChE Data Mode [1] | rSmTAChE Data Mode (rSmTAChE [3]) | other results
1 | C[C@H]1[C@H](C)CC[C@]2(C(=O)O)CC[C@]3(C)C(=CC[C@@H]4[C@@]5(C)CC[C@H](O)C(C)(C)[C@@H]5CC[C@]43C)[C@H]12 [BRD-K68185022-001-14-8] | inactive | 75.09% | 74.28% | 75.90% | decreasing (weakly active) | – | – | IC50 (rSmTAChE [3]; [4]): > 38 µM
2 | N#C[C@H]1[C@@H](c2ccc(C#CC3CC3)cc2)[C@@H](CO)N1C(=O)Cc1ccccn1 [BRD-K68325500-004-02-0] | – | 64.83% | 63.64% | 66.02% | – | inactive | inactive | –
3 | CC(C)C#Cc1ccc([C@@H]2[C@@H](CO)N3C(=O)CN(S(=O)(=O)c4ccccc4)C[C@@H]23)cc1 [BRD-K69261014-001-01-3] | – | 63.59% | 66.79% | 60.39% | – | increasing (weakly active) | inactive | –
4 | COC(=O)[C@]12CCC(C)(C)C[C@@H]1[C@@H]1C(=O)C=C3[C@]4(C)C=C(C#N)C(=O)C(C)(C)[C@@H]4CC[C@@]3(C)[C@]1(C)CC2 [BRD-K69694239-001-02-2] | decreasing (weakly active) | 75.78% | 75.16% | 76.41% | decreasing | – | – | IC50 [1]: > 38 µM; IC50 (rSmTAChE [3]; [4]): 34.7 µM
5 | NC(=O)N/N=C/c1ccc(Oc2ccc(F)cc2)cc1 [BRD-K70912147-001-01-8] | inactive | 75.84% | 80.22% | 71.46% | inactive | – | – | –
6 | O=C(C[C@@H]1C[C@@H]2c3cc(NC(=O)NC4CCCC4)ccc3O[C@@H]2[C@@H](CO)O1)NCc1ccccc1F [BRD-K71334452-001-01-3] | – | 89.18% | 90.25% | 88.11% | – | inactive | inactive | –
7 | COc1ccc(C#Cc2ccc3c(c2)O[C@H](CN(C)S(=O)(=O)c2ccccc2F)[C@H](C)CN([C@@H](C)CO)S3(=O)=O)cc1 [BRD-K71357636-001-01-3] | – | 64.93% | 63.67% | 66.19% | – | inactive | inactive | –
8 | C[C@H](CO)N1C[C@H](C)[C@@H](CN(C)C(=O)Nc2cc(F)ccc2F)Oc2cc(-c3cccc(C#N)c3)ccc2S1(=O)=O [BRD-K72311435-001-01-2] | – | 61.10% | 61.21% | 60.99% | – | decreasing (weakly active) | inactive | –
9 | C/C=C/c1cccc(-c2nc(C(=O)NCc3ccc(OC)cc3)cc3c2[C@@H](CCO)N([S@+]([O-])C(C)(C)C)C3)c1 [BRD-K73104592-001-03-5] | – | 64.19% | 65.92% | 62.45% | – | inactive | inactive | –
10 | C[C@H](CO)N1C[C@H](C)[C@H](CN(C)S(=O)(=O)c2ccc(F)cc2)Oc2c(NC(=O)Nc3cccc4ccccc34)cccc2C1=O [BRD-K73245004-001-02-0] | – | 68.21% | 69.56% | 66.86% | – | inactive | decreasing (weakly active) | –
11 | Cc1cc(C#N)cc(C)c1Oc1nc(Nc2ccc(C#N)cc2)nc(N)c1Br [BRD-K74717603-001-02-2] | inactive | 74.49% | 77.10% | 71.88% | decreasing (weakly active) | – | – | IC50 (rSmTAChE [3]; [4]): > 38 µM
12 | O=C(C[C@@H]1C[C@@H]2c3cc(NC(=O)Nc4ccccc4)ccc3O[C@@H]2[C@@H](CO)O1)NC1CCCC1 [BRD-K74918080-001-01-0] | – | 91.31% | 92.86% | 89.77% | – | inactive | decreasing (weakly active) | –
13 | COc1ccc(NC(=O)Nc2ccc3c(c2)[C@@H]2C[C@H](CC(=O)NCc4ccc5c(c4)OCO5)O[C@H](CO)[C@@H]2O3)cc1 [BRD-K77518191-001-01-1] | – | 88.00% | 87.37% | 88.63% | – | inactive | decreasing (weakly active) | –
14 | CCCC#Cc1ccc([C@H]2[C@@H](CO)N3C(=O)CN(S(=O)(=O)c4ccccc4C)C[C@@H]23)cc1 [BRD-K77990919-001-01-3] | – | 79.61% | 76.02% | 83.20% | – | inactive | inactive | –
15 | O=c1sn(-c2cccc3ccccc23)c(=O)n1Cc1ccccc1 [BRD-K81330143-001-04-8] | inactive | 88.72% | 89.17% | 88.27% | inactive | – | – | –
16 | C[C@]12CC[C@@H]3c4ccc(O)cc4CC[C@H]3[C@@H]1CCC2=O [BRD-K81839095-001-25-1] | inactive | 94.45% | 91.12% | 97.78% | inactive | – | – | –
17 | C=CCNc1nc(NCC=C)nc(N2CCN(C(c3ccc(F)cc3)c3ccc(F)cc3)CC2)n1 [BRD-K82677201-001-01-6] | decreasing (weakly active) | 71.59% | 72.90% | 70.28% | decreasing (weakly active) | – | – | IC50 [1]: > 38 µM; IC50 (rSmTAChE [3]; [4]): > 38 µM
18 | O=C(O)CCc1cc(C(=O)c2ccc(OC3CCCC3)cc2O)ccc1OCc1ccc2c(=O)[nH]oc2c1 [BRD-K84925803-001-01-9] | inactive | 87.31% | 83.68% | 90.95% | decreasing (weakly active) | – | – | IC50 (rSmTAChE [3]; [4]): > 38 µM
19 | CC1CCCCOC(CN(C)C(=O)Nc2cccc3ccccc23)C(C)CN(C(C)CO)C(=O)c2cc(N(C)C)ccc2O1 (centres unmarked) [BRD-K85440939-001-01-5] | – | – | – | – | – | – | decreasing | IC50 (µM) rHsAChE ([1]; Table 2, DOS-A library, Inactive = inactive at the maximum tested concentration (40 µM)): Inactive *; inhibition at 20 µM (rSmTAChE [2]; read-out: rSmTAChE HTS Inhibition (Ave, %)): 63.9%
20 | C[C@H](CO)N1C[C@H](C)[C@H](CN(C)CC2CC2)OCc2ccccc2-c2c(n(C)c3ccccc23)C1=O [BRD-K90625171-001-01-1] | – | 64.57% | 64.87% | 64.27% | – | inactive | decreasing (weakly active) | –
21 | CN(Cc1ccc(C(C)(C)C)cc1)Cc1cccc2ccccc12 [BRD-K90630139-003-05-9] | decreasing (weakly active) | 62.99% | 64.97% | 61.01% | inactive | – | – | IC50 [1]: > 38 µM
22 | O=C(O)C1(C(=O)O)CCC1.[NH2-].[NH2-].[Pt+2] [BRD-K90947825-001-02-7] | decreasing (weakly active) | 69.15% | 70.08% | 68.22% | decreasing | – | – | IC50 [1]: > 38 µM; IC50 (rSmTAChE [3]; [4]): 35.4 µM
23 | CCCNC(=O)Nc1ccc(Oc2ncnc3cc(OC)c(OC)cc23)cc1Cl [BRD-K90993449-001-02-7] | inactive | 77.29% | 77.00% | 77.59% | decreasing (weakly active) | – | – | IC50 (rSmTAChE [3]; [4]): > 38 µM
24 | COc1ccc(NC(=O)Nc2ccc3c(c2)[C@H]2C[C@@H](CC(=O)NCc4ccccn4)O[C@H](CO)[C@H]2O3)cc1 [BRD-K96625719-001-01-4] | – | 74.63% | 75.38% | 73.88% | – | inactive | decreasing (weakly active) | –
25 | CC(C)=CCC/C(C)=C/CC/C(C)=C/CSc1ccccc1C(=O)O [BRD-K98453471-001-01-7] | decreasing | 76.52% | 77.70% | 75.33% | decreasing | – | – | IC50 [1]: 13.7 µM; IC50 (rSmTAChE [3]; [4]): 11.6 µM
26 | Cc1cc(Nc2ncc(Cl)c(Nc3ccccc3S(=O)(=O)C(C)C)n2)c(OC(C)C)cc1C1CCNCC1 [Ceritinib, reference compound] | – | – | – | – | decreasing | – | – | Data Mode (curve class), rHsAChE ([1]; dose response analysis of Drug Repurposing Hub hits against rHsAChE): decreasing (weakly active); inhibition at 20 µM (rSmTAChE [2]; read-out: HTS/rSmTAChE Inhibition (Ave, %)): 67%; SI (Hs/Sm) (rSmTAChE [3]): 1.58
27 | N.N.[Cl][Pt][Cl] [Cisplatin, reference compound] | decreasing (weakly active) | 89.23% | 89.47% | 88.99% | decreasing | – | – | HTS/rSmTAChE Inhibition (Ave, %) (rSmTAChE [2]; 20 µM): 89.23%; SI (Hs/Sm) (rSmTAChE [3]): 9.97; fold greater potency/selectivity for SmTAChE vs. HsAChE (Selectivity Index) (rSmTAChE [3]): about 10 fold; IC50 (rSmTAChE [3]; read-out: IC50 (µM) rSmTAChE): 3.81 µM
